Experimental data reported in patent US8748661B2, “Polyamino polyketide antibiotics and uses thereof” (priority 2008, dated 2014).
In brackets after ≈: the same amount, converted by molar mass.

Experiments:
Format in all cases: cell-based
[1] = test system: Gram-negative and Gram-positive bacterial pathogens; test: MIC on a range of bacterial pathogens (summary statement); conditions: summary of Table 3, in words
Procedure: (§1) The minimum inhibition concentration (MIC) of zeamine I was carried out according to the NCCLS guidelines (4). Briefly, 96-well plates containing 2-fold serial dilutions of zeamine I and control antibiotics were prepared with LB liquid medium. The fresh overnight LB cultures of tested bacterial strains were then inoculated to the above plates after dilution to yield a final density of 10^6 CFU/ml and 10^7 CFU/ml, respectively. The plates were then incubated with gentle shaking at 30° C. or 37° C. depending on the preferred growth temperature of the tested strains. After 24 h, the plates were collected to measure OD600. The MIC was defined as the lowest concentration of the antibiotic allowing no visible growth. The MIC assay was repeated twice each time with triplicate.
The minimum inhibition concentration (MIC) of zeamine I was determined on a range of bacterial pathogens. […] In contrast, a high dosage of ampicillin, which is a commonly used antibiotic, was required to inhibit the growth of these bacterial pathogens.

E. coli CFT073 = test: MIC determination (NCCLS, 96-well, LB); conditions: Escherichia coli, 1 × 10^6 CFU/ml in LB, 30° C., 24 h
Procedure: as §1

[2] = test system: Pseudomonas aeruginosa PAO1; test: MIC determination (NCCLS, 96-well, LB); conditions: 1 × 10^6 CFU/ml in LB, 30° C., 24 h
Procedure: as §1

Klebsiella pneumonia = test: MIC determination (NCCLS, 96-well, LB); conditions: Klebsiella pneumoniae, 1 × 10^6 CFU/ml in LB, 30° C., 24 h
Procedure: as §1

E. coli DH5α = test: MIC determination (NCCLS, 96-well, LB); conditions: Escherichia coli, 1 × 10^6 CFU/ml in LB, 30° C., 24 h
Procedure: as §1

[3] = test system: Pseudomonas aeruginosa PA14; test: MIC determination (NCCLS, 96-well, LB); conditions: 1 × 10^6 CFU/ml in LB, 30° C., 24 h
Procedure: as §1

[4] = test system: Staphylococcus aureus BBA-41; test: MIC determination (NCCLS, 96-well, LB); conditions: BBA41, 1 × 10^6 CFU/ml in LB, 30° C., 24 h
Procedure: as §1

[5] = test system: Staphylococcus aureus ATCC 25531; test: MIC determination (NCCLS, 96-well, LB); conditions: ATCC25531, 1 × 10^6 CFU/ml in LB, 30° C., 24 h
Procedure: as §1

[6] = test system: Burkholderia cepacia H111; test: MIC determination (NCCLS, 96-well, LB); conditions: 1 × 10^6 CFU/ml in LB, 30° C., 24 h
Procedure: as §1

[7] = test system: Burkholderia cepacia J2315; test: MIC determination (NCCLS, 96-well, LB); conditions: 1 × 10^6 CFU/ml in LB, 30° C., 24 h
Procedure: as §1

Salmonella enterica = test: MIC determination (NCCLS, 96-well, LB); conditions: 24 h
Procedure: as §1

Bacillus cereus XJ8 = test: MIC determination (NCCLS, 96-well, LB); conditions: 1 × 10^6 CFU/ml in LB, 30° C., 24 h
Procedure: as §1

Aeromonas hydrophila = test: MIC determination (NCCLS, 96-well, LB); conditions: 1 × 10^6 CFU/ml in LB, 30° C., 24 h
Procedure: as §1

[8] = test system: Enterobacter aerogenes ATCC 13048; test: MIC determination (NCCLS, 96-well, LB); conditions: Klebsiella aerogenes, ATCC13048, 1 × 10^6 CFU/ml in LB, 30° C., 24 h
Procedure: as §1

[9] = test system: Escherichia coli strain DH5α; test: Antibiotic bioassay (agar well inhibition zone); conditions: 20 microliters of fraction in 4-mm wells, 37° C. overnight
Procedure: The bactericidal activity was assayed using Escherichia coli strain DH5α following the method described previously by Zhang et al. (Zhang et al. (1998). Factors affecting biosynthesis by Xanthomonas albilineans of albicidin antibiotics and phytotoxins. J. Appl. Microbiol. 85: 1023-1028). Briefly, an overnight LB culture of strain DH5α was diluted by 10-fold in sterilized water, and 100 microliters of the dilute were added to 5 ml of 1% agarose solution, which was autoclaved with temperature being maintained at 50° C. The bioassay plate was prepared by adding the mixture onto a plate containing 20 ml LB agar. Bioassay was conducted by adding 20 microliters of bacterial supernatants or fractions to the 4-mm diameter wells in bioassay plate. The plate was incubated at 37° C. overnight before examination of inhibition zone.

Row | Compound | dosage required to inhibit the growth of these bacterial pathogens [1] | MIC (E. coli CFT073) [mg/L] | MIC [2] [mg/L] | MIC (Klebsiella pneumonia) [mg/L] | MIC (E. coli DH5α) [mg/L] | MIC [3] [mg/L] | MIC [4] [mg/L] | MIC [5] [mg/L] | MIC [6] [mg/L] | MIC [7] [mg/L] | MIC (Salmonella enterica) [mg/L] | MIC (Bacillus cereus XJ8) [mg/L] | MIC (Aeromonas hydrophila) [mg/L] | MIC [8] [mg/L] | antibiotic activity of HPLC fraction in bioassay [9]
1 | CC1(C)S[C@@H]2[C@H](NC(=O)[C@H](N)c3ccccc3)C(=O)N2[C@H]1C(=O)O [Ampicillin] | high dosage | 25 (≈ 71.5 µM) | 400 (≈ 1140 µM) | > 800 | 25 (≈ 71.5 µM) | 800 (≈ 2290 µM) | > 500 | 15.6 (≈ 44.6 µM) | > 800 | > 800 | 12.5 (≈ 35.8 µM) | 100 (≈ 286 µM) | 125 (≈ 358 µM) | > 800 | 
2 | NC[C@H]1O[C@H](O[C@H]2[C@H](O)[C@@H](O[C@H]3O[C@H](CO)[C@@H](O)[C@H](N)[C@H]3O)[C@H](N)C[C@@H]2N)[C@H](O)[C@@H](O)[C@@H]1O [Kanamycin] |  | 6.2 (≈ 12.8 µM) | 200 (≈ 413 µM) | 3.1 (≈ 6.4 µM) | 10 (≈ 20.6 µM) | 200 (≈ 413 µM) | 12.5 (≈ 25.8 µM) | 6.2 (≈ 12.8 µM) | 6.2 (≈ 12.8 µM) | 400 (≈ 826 µM) | 12.5 (≈ 25.8 µM) | 3.1 (≈ 6.4 µM) | 25 (≈ 51.6 µM) | 3.1 (≈ 6.4 µM) | 
3 | CN(C)[C@@H]1C(O)=C(C(N)=O)C(=O)[C@@]2(O)C(O)=C3C(=O)c4c(O)cccc4[C@@](C)(O)[C@H]3C[C@@H]12 [Tetracycline] |  | 0.75 (≈ 1.69 µM) |  | 6.2 (≈ 14 µM) | 3.1 (≈ 6.98 µM) | 12.5 (≈ 28.1 µM) | 6.2 (≈ 14 µM) | 3.1 (≈ 6.98 µM) | 12.5 (≈ 28.1 µM) | 50 (≈ 113 µM) |  | 6.2 (≈ 14 µM) | 6.2 (≈ 14 µM) | 3.1 (≈ 6.98 µM) | 
4 | CCCCCC(N)CCCCCCCC(N)CCCCCCCC(N)CCCCCCCC(N)CCCCCCCC(O)CCN (stereo not drawn) [Zeamine II] |  |  |  |  |  |  |  |  |  |  |  |  |  |  | minor active fraction
